Experimental data: patent US20130052154A1, “Compositions and Methods for the Treatment of Lung Inflammation” (BOARD OF REGENTS OF THE UNIVERSITY OF NEBRASKA, priority 2011, published 2013)

Columns and labels:
Assay type in all cases: biochemical
[1] = target: T1, catalase (from bovine liver), native (nC) (Bos taurus, UniProt P00432); assay: Catalytic constants of native catalase (nC) from effect of H2O2 concentration on rate of H2O2 decomposition; conditions: H2O2 0 to 65 mM, catalase 2 μg/mL, 50 mM phosphate buffer pH 7.4, 240 nm, Lineweaver-Burk
T1 construct: purchased Calbiochem (Gibbstown, N.J.); host or cells: bovine liver
T1 sequence (P00432 2-527 limits assumed): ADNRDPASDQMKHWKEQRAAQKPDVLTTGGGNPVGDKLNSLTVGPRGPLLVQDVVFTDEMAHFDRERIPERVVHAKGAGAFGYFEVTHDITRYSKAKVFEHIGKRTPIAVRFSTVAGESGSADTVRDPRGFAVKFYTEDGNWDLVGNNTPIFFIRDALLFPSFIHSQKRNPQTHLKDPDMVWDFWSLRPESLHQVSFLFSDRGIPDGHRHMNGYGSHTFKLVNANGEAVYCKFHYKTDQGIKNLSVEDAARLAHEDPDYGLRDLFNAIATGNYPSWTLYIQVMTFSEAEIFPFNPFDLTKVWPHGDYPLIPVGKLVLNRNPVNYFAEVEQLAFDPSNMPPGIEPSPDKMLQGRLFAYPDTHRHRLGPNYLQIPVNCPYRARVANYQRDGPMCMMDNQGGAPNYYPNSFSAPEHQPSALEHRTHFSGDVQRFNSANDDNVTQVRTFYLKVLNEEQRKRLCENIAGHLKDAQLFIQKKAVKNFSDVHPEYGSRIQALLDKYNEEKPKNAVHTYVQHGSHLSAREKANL
Experimental: (§1) SOD1 (from bovine erythrocytes), hydrogen peroxide (H2O2), 2,3,5-triphenyltetrazolium chloride (TTC) and copper standards for Inductively Coupled Plasma Mass Spectroscopy (ICP-MS)— TraceCERT®, 1000 mg/L Cu in nitric acid) were from Sigma-Aldrich (St. Louis, Mo.). Catalase (from bovine liver) was from Calbiochem (Gibbstown, N.J.). PEG-pLL50 was from Alamanda Polymers™ (Huntsville, Ala.). […] Cross-linkers 3,3′-dithiobis(sulfosuccinimidylpropionate) (DTSSP) and bis(sulfosuccinimidyl)suberate (BS^3) were from Thermo Fisher Scientific (Rockford, Ill.). NAP™ desalting columns and HiPrep 16/60 Sephacryl S-400 HR column were from GE Healthcare (Piscataway, N.J.). Criterion Tris-HCl gels and Precision Plus Protein™ All Blue Standards were from Bio-Rad (Hercules, Calif.). SYPRO® Ruby protein gel stain and cell culture reagents were purchased from Invitrogen (Carlsbad, Calif.). CellTiter 96® AQueous One Solution Cell Proliferation Assay (MTS) was from Promega (Madison, Wis.). LumiMax Superoxide Anion Detection Kit was from Agilent Technologies, Inc. (Santa Clara, Calif.). All other reagents and supplies were from Fisher Scientific (Pittsburgh, Pa.) unless noted otherwise.

[2] = target: T2, catalase (from bovine liver), cleavable DTSSP cross-linked cl-nanozyme with PEG-pLL50, purified (C2p) (Bos taurus, UniProt P00432); assay: Catalytic constants of purified DTSSP cross-linked catalase cl-nanozyme (C2p) from effect of H2O2 concentration on rate of H2O2 decomposition
T2 construct: purchased Calbiochem (Gibbstown, N.J.); host or cells: bovine liver
T2 sequence (P00432 2-527 limits assumed): T1 sequence (P00432 2-527 limits assumed)
Experimental: as §1
Enzyme and polymer stock solutions were prepared in 10 mM HEPES (pH 7.4) and 10 mM HEPES-buffered saline (HBS; pH 7.4) for SOD1 and catalase, respectively. Non-cross-linked BICs (Z+/−=2) were prepared as described (Klyachko et al. (2012) Nanomed. Nanotechnol. Biol. Med., 8:119-129). Targeted degree of cross-linking was defined as the molar ratio between cross-linker (DTSSP/BS^3) and pLL amines Precalculated amount of the respective cross-linker was dissolved in the reaction buffer (HEPES/HBS), quickly added to BICs, and the reaction mixture was briefly vortexed and incubated for 2 hours on ice. Unreacted crosslinker was desalted using NAP™ columns following manufacturer's instructions. Cl-Nanozymes were purified using size exclusion chromatography (SEC) (small/intermediate scale) or centrifugal filtration (large scale). SEC was carried out using an ÄKTA™ Fast Protein Liquid Chromatography (FPLC) (Amersham Biosciences, Piscataway, N.J.) system. DTSSP cl-nanozymes were lyophilized overnight, reconstituted in deionized water (DW), loaded onto a HiPrep 16/60 Sephacryl™ S-400 HR column and eluted using 10 mM HBS (pH 7.4) at a flow rate of 0.5 mL/minute. Prior to each experiment, the column was pre-conditioned with free block copolymer (PEG-pLL50) to minimize non-specific adsorption of the cl-nanozymes (Boeckle et al. (2004) J. Gene Med., 6:1102-1111). […] Protein concentration was determined using Micro BCA™ Protein Assay Kit. […]

[3] = target: T3, catalase (from bovine liver), cleavable DTSSP cross-linked cl-nanozyme with PEG-pLL50, non-purified (C2) (Bos taurus, UniProt P00432); assay: Catalytic constants of DTSSP cross-linked catalase cl-nanozyme (C2) from effect of H2O2 concentration on rate of H2O2 decomposition
T3 construct: purchased Calbiochem (Gibbstown, N.J.); host or cells: bovine liver
T3 sequence (P00432 2-527 limits assumed): T1 sequence (P00432 2-527 limits assumed)
Experimental: as §1
Enzyme and polymer stock solutions were prepared in 10 mM HEPES (pH 7.4) and 10 mM HEPES-buffered saline (HBS; pH 7.4) for SOD1 and catalase, respectively. Non-cross-linked BICs (Z+/−=2) were prepared as described (Klyachko et al. (2012) Nanomed. Nanotechnol. Biol. Med., 8:119-129). Targeted degree of cross-linking was defined as the molar ratio between cross-linker (DTSSP/BS^3) and pLL amines Precalculated amount of the respective cross-linker was dissolved in the reaction buffer (HEPES/HBS), quickly added to BICs, and the reaction mixture was briefly vortexed and incubated for 2 hours on ice. Unreacted crosslinker was desalted using NAP™ columns following manufacturer's instructions. Cl-Nanozymes were purified using size exclusion chromatography (SEC) (small/intermediate scale) or centrifugal filtration (large scale). […] Protein concentration was determined using Micro BCA™ Protein Assay Kit. […]

[4] = H2O2 0 to 65 mM, catalase 2 μg/mL, 50 mM phosphate buffer pH 7.4, 240 nm, Lineweaver-Burk, purified cl-nanozyme C2p
[5] = H2O2 0 to 65 mM, catalase 2 μg/mL, 50 mM phosphate buffer pH 7.4, 240 nm, Lineweaver-Burk, non-purified cl-nanozyme C2

Question: `OO` [H2O2, hydrogen peroxide] was tested. Which Km [1] did it give?
Answer: The Km was 53.2 mM.

Question: What about the kcat [1] of the same molecule?
Answer: The kcat was 798000 s⁻¹.

Question: What about the “kcat/Km lower than nC” value ([2]; C2p compared to native catalase (nC)) of the same molecule?
Answer: Its value is “ca. 48%”.

Question: And the “kcat/Km lower than C2” value ([2]; C2p compared to non-purified cl-nanozyme (C2))?
Answer: The value was roughly 53%.

Question: And the Km [2, 4]?
Answer: Its Km is 93.2 mM.

Question: And the kcat [2, 4]?
Answer: The kcat was 722000 s⁻¹.

Question: And the “increase in Km value” ([3]; C2 compared to native catalase (nC))?
Answer: Its value is “ca. 1.8 fold”.

Question: What about the Km [3, 5] of the same molecule?
Answer: Its Km is 94.1 mM.

Question: What about the kcat [3, 5] of the same molecule?
Answer: The kcat was 1.56e+06 s⁻¹.
